The target of test [1] is T1, SALDAP (6xHis-SALDAP), salicylaldehyde dehydrogenase (soil metagenome, UniProt Z9QUQ6R3A5).
T1 construct: full-length ORF, N-terminal 6xHis tag kept (pLATE51), E. coli BL21(DE3); homodimer about 110-115 kDa
Briefly: X-ray crystallography, electron density in active site. It is filed as binding. Conditions: two conformations; structure first reported in the group's earlier paper.

Test [2] addresses T1, SALDAP (6xHis-SALDAP), salicylaldehyde dehydrogenase. Kind of test: differential scanning fluorimetry, SYPRO Orange. It is filed as binding. Conditions: 50 mM HEPES pH 7.4. From the text:
differential scanning fluorimetry, SYPRO Orange on SALDAP (6xHis-SALDAP), salicylaldehyde dehydrogenase
(In general: In DSF a fluorescence change marks the thermal transition of the protein.)

Test [3] has the same target. Briefly: NADH formation at […] nm, substrate inhibition fit. Type of test: biochemical. Particulars: 50 µM NAD+, 100 mM Tricine pH 8.0, 25 °C, 1.7% DMSO.

The structures appear in SMILES notation.

Turning to `O=Cc1ccc2ccccc2c1` [2-naphthaldehyde], the “X-ray crystallography, electron density in active site” value in test [1] is given as “electron density as seen in the active site of SALDAP after refinement using 2-naphthaldehyde”.
Consider `O=Cc1ccc(O)c(O)c1` [3,4-dihydroxybenzaldehyde], for which, in test [2] (2 mM ligand with 1.5 mM NAD+), the “Tm ^oC” value stood at 71.0 ± 0.0 °C.
On the same count and under the same terms, to `O=Cc1ccc(O)cc1` [4-hydroxybenzaldehyde] belongs 70.0 ± 0.3 °C.
Consider `O=Cc1ccccc1` [Benzaldehyde], for which the Ki in test [3] is recorded as 5.02 ± 1.84 µM.
Consider `NC(=O)c1ccc[n+]([C@@H]2O[C@H](COP(=O)(O)OP(=O)(O)OC[C@H]3O[C@@H](n4cnc5c(N)ncnc54)[C@H](O)[C@@H]3O)[C@@H](O)[C@H]2O)c1` [NAD+], for which the “Tm ^oC” value in test [2] (1.5 mM NAD+ alone) is 68.7 ± 0.3 °C.
Consider `COc1cc(C=O)ccc1O` [Vanillin], for which, in test [2] (2 mM ligand with 1.5 mM NAD+), the “Tm ^oC” value came to 69.6 ± 0.4 °C.

The record behind these values is PMC12718228 (Applied Biochemistry and Biotechnology, 2025).
